Data taken from ChEMBL document CHEMBL5634127, “Synthesis of novel rhodamine type Anthrone Spiro-lactam (ASL) analogues and evaluation of antiviral activity against dengue and chikungunya viruses” (Eur J Med Chem, 2023).
The source made the active and inactive calls. The rule behind the calls is not given here.

Key:
[1] = Cytotoxicity against green monkey Vero cells assessed as cell viability at 0.78 to 100 uM incubated for 5 days by MTT assay relative to control; assay type: toxicity, cell-based; details: chlorocebus sabaeus, dose 0.78-100 µM, time 5 day, read-out: Activity
Chikungunya virus [2] = experiment: Antiviral activity against Chikungunya virus infected in green monkey Vero cells assessed as reduction in viral growth at 100 uM preincubated for 1 hr with compound followed by virus infection and measured after 24 hrs by focus forming unit assay; assay type: functional, organism-based; details: time 25.0 hrs
Dengue virus [3] = experiment: Antiviral activity against Dengue virus infected in green monkey Vero cells assessed as reduction in colony forming unit incubated for 1 hr after the virus infection and measured after 120 hrs by focus forming unit assay; assay type: functional, organism-based; details: time 121.0 hrs
[4] = Cytotoxicity against green monkey Vero cells incubated for 5 days by MTT assay; assay type: toxicity, cell-based; details: chlorocebus sabaeus, time 5 day
Dengue virus [5] = experiment: Antiviral activity against Dengue virus infected in green monkey Vero cells assessed as reduction in viral titer at 50 uM incubated for 1 hr after the virus infection and measured after 120 hrs by focus forming unit assay (reference value: 6.134 log10FFU/ml); assay type: functional; details: time 121 hrs
Chikungunya virus [6] = experiment: Antiviral activity against Chikungunya virus infected in green monkey Vero cells assessed as reduction in viral growth at 100 uM incubated for 1 hr along with virus infection and measured after 24 hrs by focus forming unit assay; assay type: functional, organism-based; details: time 25.0 hrs
Dengue virus [7] = experiment: Antiviral activity against Dengue virus infected in green monkey Vero cells assessed as reduction in colony forming unit at 100 uM incubated for 1 hr after the virus infection and measured after 120 hrs by focus forming unit assay; assay type: functional; details: time 121 hrs
Dengue virus [8] = experiment: Antiviral activity against Dengue virus infected in green monkey Vero cells assessed as reduction in viral titer at 100 uM incubated for 1 hr after the virus infection and measured after 120 hrs by focus forming unit assay (reference value: 6.134 log10FFU/ml); assay type: functional; details: time 121 hrs
Chikungunya virus [9] = experiment: Antiviral activity against Chikungunya virus infected in green monkey Vero cells assessed as reduction in viral growth at 50 uM incubated for 1 hr along with virus infection and measured after 24 hrs by focus forming unit assay; assay type: functional, organism-based; details: time 25.0 hrs
Chikungunya virus [10] = experiment: Antiviral activity against Chikungunya virus infected in green monkey Vero cells assessed as reduction in viral growth at 50 uM preincubated for 1 hr with compound followed by virus infection and measured after 24 hrs by focus forming unit assay; assay type: functional, organism-based; details: time 25.0 hrs
Chikungunya virus [11] = experiment: Antiviral activity against Chikungunya virus infected in green monkey Vero cells assessed as reduction in viral growth at 3.125 uM preincubated for 1 hr with compound followed by virus infection and measured after 24 hrs by focus forming unit assay; assay type: functional, organism-based; details: time 25.0 hrs
Chikungunya virus [12] = experiment: Antiviral activity against Chikungunya virus infected in green monkey Vero cells assessed as reduction in viral growth at 3.125 uM incubated for 1 hr along with virus infection and measured after 24 hrs by focus forming unit assay; assay type: functional, organism-based; details: time 25.0 hrs
Dengue virus [13] = experiment: Antiviral activity against Dengue virus infected in green monkey Vero cells assessed as reduction in colony forming unit at 50 uM incubated for 1 hr after the virus infection and measured after 120 hrs by focus forming unit assay; assay type: functional; details: time 121 hrs
Dengue virus [14] = experiment: Antiviral activity against Dengue virus infected in green monkey Vero cells assessed as reduction in colony forming unit at 12.5 uM incubated for 1 hr along with virus infection and measured after 120 hrs by focus forming unit assay (reference value: 5.187 log10FFU/ml); assay type: functional; details: time 121 hrs
Dengue virus [15] = experiment: Antiviral activity against Dengue virus infected in green monkey Vero cells assessed as reduction in colony forming unit incubated for 1 hr along with virus infection and measured after 120 hrs by focus forming unit assay; assay type: functional, organism-based; details: time 121.0 hrs
Chikungunya virus [16] = experiment: Antiviral activity against Chikungunya virus infected in green monkey Vero cells assessed as reduction in viral growth at 12.5 uM preincubated for 1 hr with compound followed by virus infection and measured after 24 hrs by focus forming unit assay; assay type: functional, organism-based; details: time 25.0 hrs
Chikungunya virus [17] = experiment: Antiviral activity against Chikungunya virus infected in green monkey Vero cells assessed as reduction in viral growth at 12.5 uM incubated for 1 hr along with virus infection and measured after 24 hrs by focus forming unit assay; assay type: functional, organism-based; details: time 25.0 hrs
Chikungunya virus [18] = experiment: Antiviral activity against Chikungunya virus infected in green monkey Vero cells assessed as reduction in colony forming unit at 50 uM incubated for 1 hr after the virus infection and measured after 24 hrs by focus forming unit assay; assay type: functional; details: time 25 hrs
Chikungunya virus [19] = experiment: Antiviral activity against Chikungunya virus infected in green monkey Vero cells assessed as reduction in viral growth incubated for 1 hr after the virus infection and measured after 24 hrs by focus forming unit assay; assay type: functional, organism-based; details: time 25.0 hrs
Dengue virus [20] = experiment: Antiviral activity against Dengue virus infected in green monkey Vero cells assessed as reduction in viral titer at 25 uM incubated for 1 hr after the virus infection and measured after 120 hrs by focus forming unit assay (reference value: 6.134 log10FFU/ml); assay type: functional; details: time 121 hrs
Chikungunya virus [21] = experiment: Antiviral activity against Chikungunya virus infected in green monkey Vero cells assessed as reduction in viral growth at 6.25 uM preincubated for 1 hr with compound followed by virus infection and measured after 24 hrs by focus forming unit assay; assay type: functional, organism-based; details: time 25.0 hrs
Chikungunya virus [22] = experiment: Antiviral activity against Chikungunya virus infected in green monkey Vero cells assessed as reduction in viral growth at 6.25 uM incubated for 1 hr along with virus infection and measured after 24 hrs by focus forming unit assay; assay type: functional, organism-based; details: time 25.0 hrs

SMILES	viability at 120 h, up to 100 µM [1]	Activity (Dengue virus [3])	CC50 at 120 h [4]	Remaining viral titer (Dengue virus [5])	Activity (Chikungunya virus [9])	Activity (Chikungunya virus [10])	other results
COc1cc2c(cc1OC)C1(c3cc(OC)c(OC)cc3C2=O)c2cc(OC)c(OC)cc2C(=O)N1/N=C/c1cc(OC)c(O)c(OC)c1	≥ 90%	Dose-Dependent Effect	> 100 µM	5.052 log10FFU/ml	–	–	Activity (Chikungunya virus [2]): inactive; Activity (Chikungunya virus [6]): inactive; Activity (Dengue virus [7]): >=1 log10CFU; Activity (Dengue virus [8]): 3.994 log10FFU/ml
COc1cc2c(cc1OC)C1(c3cc(OC)c(OC)cc3C2=O)c2cc(OC)c(OC)cc2C(=O)N1/N=C/c1c2ccccc2cc2ccccc12	≥ 90%	–	352 µM	–	inactive	inactive	–
COc1cc2c(cc1OC)C1(c3cc(OC)c(OC)cc3C2=O)c2cc(OC)c(OC)cc2C(=O)N1/N=C/c1cccs1	≥ 90%	–	52.7 µM	–	–	–	Activity (Chikungunya virus [11]): inactive; Activity (Chikungunya virus [12]): inactive
COc1cc(/C=N/N2C(=O)c3cc(OC)c(OC)cc3C23c2cc(OC)c(OC)cc2C(=O)c2cc(OC)c(OC)cc23)ccc1O	≥ 90%	Dose-Dependent Effect	113 µM	5.23 log10FFU/ml	inactive	inactive	Activity (Dengue virus [13]): >=1 log10CFU
COc1cc2c(cc1OC)C1(c3cc(OC)c(OC)cc3C2=O)c2cc(OC)c(OC)cc2C(=O)N1/N=C/c1ccc(N(C)C)cc1	≥ 90%	–	122 µM	–	inactive	inactive	–
COc1cc2c(cc1OC)C1(c3cc(OC)c(OC)cc3C2=O)c2cc(OC)c(OC)cc2C(=O)N1/N=C/c1ccccc1	≥ 90%	Dose-Dependent Effect	> 100 µM	–	–	–	Activity (Chikungunya virus [2]): inactive; Activity (Chikungunya virus [6]): inactive; Activity (Dengue virus [7]): >=1 log10CFU; Activity (Dengue virus [8]): 5.03 log10FFU/ml
COc1cc2c(cc1OC)C1(c3cc(OC)c(OC)cc3C2=O)c2cc(OC)c(OC)cc2C(=O)N1/N=C/c1ccccc1O	≥ 90%	–	173 µM	–	–	–	Activity (Dengue virus [14]): 4.101 log10FFU/ml; Activity (Dengue virus [15]): Dose-Dependent Effect; Activity (Chikungunya virus [16]): inactive; Activity (Chikungunya virus [17]): inactive
COc1cc2c(cc1OC)C1(c3cc(OC)c(OC)cc3C2=O)c2cc(OC)c(OC)cc2C(=O)N1NC(=O)c1cc(C(F)(F)F)cc(C(F)(F)F)c1	≥ 90%	–	98.9 µM	–	inactive	inactive	Activity (Chikungunya virus [18]): >=1 log10CFU; Activity (Chikungunya virus [19]): Dose-Dependent Effect
COc1cc2c(cc1OC)C1(c3cc(OC)c(OC)cc3C2=O)c2cc(OC)c(OC)cc2C(=O)N1NC(=O)c1ccc([N+](=O)[O-])cc1	≥ 90%	–	97.3 µM	–	inactive	inactive	–
COc1cc2c(cc1OC)C1(c3cc(OC)c(OC)cc3C2=O)c2cc(OC)c(OC)cc2C(=O)N1/N=C/c1cc(OC)c(OC)c(OC)c1	≥ 90%	Dose-Dependent Effect	99.8 µM	4.098 log10FFU/ml	inactive	inactive	Activity (Chikungunya virus [18]): >=1 log10CFU; Activity (Dengue virus [13]): >=1 log10CFU; Activity (Dengue virus [20]): 5.064 log10FFU/ml; Activity (Chikungunya virus [19]): Dose-Dependent Effect
COc1cc2c(cc1OC)C1(c3cc(OC)c(OC)cc3C2=O)c2cc(OC)c(OC)cc2C(=O)N1/N=C/c1ccc2ccccc2n1	≥ 90%	–	100 µM	–	–	–	Activity (Chikungunya virus [21]): inactive; Activity (Chikungunya virus [22]): inactive
COc1cc2c(cc1OC)C1(c3cc(OC)c(OC)cc3C2=O)c2cc(OC)c(OC)cc2C(=O)N1/N=C/c1ccc(Br)cc1	≥ 90%	Dose-Dependent Effect	181 µM	5.431 log10FFU/ml	inactive	inactive	Activity (Dengue virus [13]): >=1 log10CFU
